Experiments:
[1] = molecular target: T1, Dimer of Gag-Pol polyprotein [514-612] (Human immunodeficiency virus 2, UniProt P04584); assay: Protease Inhibition Assay
T1 construct: 514-612
T1 sequence (P04584 whole entry): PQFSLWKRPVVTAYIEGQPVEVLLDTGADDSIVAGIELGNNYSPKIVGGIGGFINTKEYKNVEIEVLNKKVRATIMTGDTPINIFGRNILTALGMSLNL
Protocol: (§1) Enzymatic activity was measured by following cleavage of the substrate H-Lys-Ala-Arg-Val-Leu-pNph-Glu-Ala-Nle-NH2. Products of the cleavage reaction were quantified by HPLC detection

[2] = molecular target: T2, Dimer of Gag-Pol polyprotein [489-587] (Human immunodeficiency virus 1, UniProt P12497); assay: Protease Inhibition Assay
T2 construct: 489-587
Protocol: as §1

| SMILES | Ki ([2]; pH 6.25, 37 °C) [µM] | Ki [1] [µM] | further results |
| --- | --- | --- | --- |
| CC(C)[C@H](NC(=O)OCc1ccccc1)C(=O)N[C@@H](Cc1ccccc1)[C@@H](O)[C@@H](NCc1ccccc1)C(=O)N[C@H](C(=O)NCc1ccccc1)C(C)C [5PhBuCOOH deriv.] |  |  | Ki ([1]; pH 4.7, 37 °C): 0.18 µM |
| CC(C)[C@H](NC(=O)OCc1ccccc1)C(=O)N[C@@H](Cc1ccccc1)[C@@H](O)[C@@H](NCc1ccccc1)C(=O)N[C@H](C(=O)NCc1ccccc1)C(C)(C)C [benzyl N-[(1S)-1-{[(2S,3R,4R)-4-(benzylamino)-4-{[(1S)-1-(benzylcarbamoyl)-2,2-dimethylpropyl]carbamoyl}-3-hydroxy-1-phenylbutan-2-yl]carbamoyl}-2-methylpropyl]carbamate] | 0.02 |  |  |
| COc1ccc(CN[C@@H](C(=O)N[C@H](C(=O)NCc2nc3ccccc3[nH]2)C(C)C)[C@H](O)[C@H](Cc2ccccc2)NC(=O)[C@@H](NC(=O)CCc2ccc(O)cc2)C(C)(C)C)cc1 [5PhBuCOOH deriv.] |  | 0.063 |  |
| CC(C)[C@H](NC(=O)[C@H](NCc1ccccc1)[C@H](O)[C@H](Cc1ccccc1)NC(=O)[C@H](CCC(=O)O)NC(=O)OCc1ccccc1)C(=O)NCc1ccccc1 [5PhBuCOOH deriv.] | 0.045 |  |  |
| CC(C)[C@H](NC(=O)OCc1ccccc1)C(=O)N[C@@H](Cc1ccccc1)[C@@H](O)[C@@H](NCc1ccccc1)C(=O)N[C@@H](C(=O)NCc1ccccc1)C(C)(C)C [5PhBuCOOH deriv.] |  |  | Ki [2]: > 3 µM |
| COc1ccc(CN[C@@H](C(=O)N[C@H](C(=O)NCc2nc3ccccc3[nH]2)C(C)C)[C@H](O)[C@H](Cc2ccccc2)NC(=O)[C@@H](NC(=O)OCc2ccccc2)C(C)(C)C)cc1 [5PhBuCOOH deriv.] |  | 0.052 |  |
| CC(C)[C@H](NC(=O)[C@H](NCc1ccc(Cl)cc1)[C@H](O)[C@H](Cc1ccccc1)NC(=O)[C@@H](NC(=O)OCc1ccccc1)C(C)(C)C)C(=O)NCc1nc2ccccc2[nH]1 [benzyl N-[(1S)-1-{[(2S,3R,4R)-4-{[(1S)-1-[(1H-1,3-benzodiazol-2-ylmethyl)carbamoyl]-2-methylpropyl]carbamoyl}-4-{[(4-chlorophenyl)methyl]amino}-3-hydroxy-1-phenylbutan-2-yl]carbamoyl}-2,2-dimethylpropyl]carbamate] |  | 0.017 |  |
| COc1ccc(CN[C@@H](C(=O)N[C@H](C(=O)NCc2nc3ccccc3[nH]2)C(C)C)[C@H](O)[C@H](Cc2ccccc2)NC(=O)[C@@H](NC(=O)[C@@](C)(O)c2ccccc2)C(C)(C)C)cc1 [5PhBuCOOH deriv.] |  | 0.11 | Ki [2]: 0.006 µM |
| CCC(C)[C@H](NC(=O)[C@H](NCc1ccccc1)[C@H](O)[C@H](Cc1ccccc1)NC(=O)[C@@H](NC(=O)OCc1ccccc1)C(C)C)C(=O)NCc1ccccc1 (stereo partly drawn) [benzyl N-[(1S)-1-{[(2S,3R,4R)-4-(benzylamino)-4-{[(1S,2R)-1-(benzylcarbamoyl)-2-methylbutyl]carbamoyl}-3-hydroxy-1-phenylbutan-2-yl]carbamoyl}-2-methylpropyl]carbamate] | > 3 |  |  |
| COc1ccc(CN[C@@H](C(=O)N[C@H](C(=O)NCc2ccccc2)C(C)C)[C@H](O)[C@H](Cc2ccccc2)NC(=O)[C@@H](NC(=O)OCc2ccccc2)C(C)C)cc1 [benzyl N-[(1S)-1-{[(2S,3R,4R)-4-{[(1S)-1-(benzylcarbamoyl)-2-methylpropyl]carbamoyl}-3-hydroxy-4-{[(4-methoxyphenyl)methyl]amino}-1-phenylbutan-2-yl]carbamoyl}-2-methylpropyl]carbamate] |  |  | Ki ([1]; pH 4.7, 37 °C): 0.039 µM |
| CCC(C)[C@H](NC(=O)OCc1ccccc1)C(=O)N[C@@H](Cc1ccccc1)[C@@H](O)[C@@H](NCc1ccccc1)C(=O)N[C@H](C(=O)NCc1ccccc1)C(C)C (stereo partly drawn) [5PhBuCOOH deriv.] | 0.0083 |  |  |
| CC(C)[C@H](NC(=O)[C@H](NCc1ccccc1)[C@H](O)[C@H](Cc1ccccc1)NC(=O)[C@@H](NC(=O)OCc1ccccc1)C(C)(C)C)C(=O)NCc1ccccc1 [5PhBuCOOH deriv.] |  |  | Ki ([1]; pH 4.7, 37 °C): 0.054 µM |

Source: BindingDB's records for doi:10.1021/jm00045a013 (Sandoz Forschungsinstitut Ges.M.B.H., 1994)
